Data on 25 compounds can be found in ChEMBL document CHEMBL1201862, “PubChem BioAssay data set” (2004).

Holding throughout (test): NCI anticancer screen, dose series, 48 h
The subject of assay [1] is XF498.
Assay [2] relates to SNB-78.
Assay [3] deals with DLD-1.
For assay [4], the system named is RXF 631.
Assay [5] deals with LXFL 529.
Assay [6] deals with KM-20L2.
The subject of assay [7] is DMS-114.
Assay [8] relates to HOP-18.
The subject of assay [9] is DMS-273.

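Method: 48-hour compound exposure of cells in 96-well plates, five concentrations, linear interpolation of endpoints. At the GI50, growth is halved.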 Active and inactive are the calls of the source. Cut-off read from the data, not from the text of the source: active = GI50 up to about 1.1 µM and inactive = higher.

Consider `O=Cc1cn(S(=O)(=O)c2ccccc2)c2ccccc12`, for which the GI50 in [1] is 46 µM (inactive); in assay [2], 41.3 µM (inactive); in assay [3], 27.2 µM (inactive); in [4], 53.7 µM (inactive); in [5], 36.4 µM (inactive); in [6], > 100 µM (inactive). The GI50 in assay [7] was 24.8 µM (inactive); in [8], 32.4 µM (inactive).

Regarding `Cc1ccc(C)c(NC(=O)C(=O)C(C2C(C)CC(=O)C2CC(=O)O)[N+](=O)[O-])c1` (stereo not drawn), the GI50 in assay [1], in assay [2], in assay [3], in assay [4], in assay [5] and in [6] was > 100 µM (inactive) throughout. Moreover, in [7], the GI50 was > 100 µM (inactive).

Take `O=C(c1ccccc1)c1nc2c(Cl)ccc(Cl)c2cc1C(Br)Br`: the GI50 in [1] was 1.07 µM (active); in assay [2] it was 2.06 µM (inactive); in assay [3] it was 0.444 µM (active); in assay [9], 1.32 µM (inactive); in [4] it was 1.78 µM (inactive); in assay [5], 0.39 µM (active). The GI50 was 1.04 µM (active) in assay [6], 2.04 µM (inactive) in [7] and 1.66 µM (inactive) in assay [8].

As to `NC(=O)CCC(NC(=O)Cc1ccccc1)C(=O)O.NC(CCC(=O)NC(=O)Cc1ccccc1)C(=O)O` (stereo not drawn), the GI50 in assay [3], in assay [5], in assay [6], in assay [7] and in [8] was > 8130 µM (inactive) throughout.

Regarding `COc1ccc2c3c([nH]c2c1[N+](=O)[O-])C(C)N(Cc1ccccc1)CC3` (stereo not drawn), the GI50 is 3.59 µM (inactive) in assay [2]; > 100 µM (inactive) in [3]; 1.04 µM (active) in [9]; 5.07 µM (inactive) in [5]; 3.78 µM (inactive) in [6]; 3.39 µM (inactive) in [7].

As for `COC1/C=C\C=C(/C)C(=O)NC2=CC(=O)C(N)=C(CC(C)CC(OC)C(O)C(C)C=C(C)C1OC(N)=O)C2=O` (stereo not drawn), the GI50 is 0.0565 µM (active) in assay [1]; 3.55 µM (inactive) in [2]; 0.0689 µM (active) in assay [3]; 0.303 µM (active) in assay [4]; 0.0462 µM (active) in [5]; < 0.01 µM (active) in [6]. Besides, the GI50 in assay [8] is < 0.01 µM (active).

On to `CC(C)CCCCCCCCCCCCC(=O)NCC(=O)NC1C(O)C(O)C(Nc2[nH]cnc3ncnc2-3)OC1C(O)CO` (stereo not drawn), for which the GI50 in [2] was 0.000148 µM (active); in assay [3], 0.0205 µM (active); in [9], 0.000133 µM (active); in assay [6] it was 0.000166 µM (active); in [7], 0.000416 µM (active); in assay [8], 0.000164 µM (active).

In the case of `COc1ccc2c3c(c(C(=O)c4ccccc4)oc13)CCC2`, the GI50 in assay [1], in assay [2], in assay [3], in assay [9], in assay [4] and in assay [5] was > 100 µM (inactive) in each case. For the same compound, the GI50 in assay [6], in [7] and in assay [8] was > 100 µM (inactive) each time.

With `O=C(/C=C/c1c(O)ccc2ccccc12)c1ccc([N+](=O)[O-])cc1`, the GI50 in [1] was 27.5 µM (inactive); in assay [2] it was 21.6 µM (inactive); in assay [3], 18.7 µM (inactive); in assay [9], > 78.7 µM (inactive); in [5], 16.6 µM (inactive); in assay [6], > 100 µM (inactive). The results for the GI50 in assay [7] and in assay [8] were 21.3 µM (inactive) and 15.2 µM (inactive), respectively.

For the compound `COC1OC(CO)C(O)C(O)C1Br` (stereo not drawn), the GI50 in [1], in assay [2], in assay [3], in assay [9], in assay [4] and in assay [5] was > 100 µM (inactive) in each case. Also, the GI50 in assay [6] and in assay [8] was > 100 µM (inactive) in each case.

With `COc1ccc(C2=NC(C)(C)CO2)cc1`, the GI50 in assay [1], in assay [2], in assay [3], in assay [9], in assay [6] and in assay [7] was > 100 µM (inactive) throughout. Besides, the GI50 in assay [8] was > 100 µM (inactive).

For `O=C1COc2cc(NC(=S)Nc3ccccc3)ccc2N1`, the GI50 in assay [1], in assay [2], in assay [3], in [9], in [4] and in assay [5] was > 100 µM (inactive) each time. Moreover, the GI50 in assay [6], in [7] and in [8] was > 100 µM (inactive) each time.

For `Cc1ccc(C)c2c1CCc1cc3ccccc3nc1-2`, the GI50 in assay [1], in assay [2], in assay [3], in assay [5], in assay [6] and in [7] was > 100 µM (inactive) in each case. Also, in assay [8], the GI50 is 2.65 µM (inactive).

As to `Cc1ccc(S(=O)(=O)N2CCC2c2ccccc2)cc1` (stereo not drawn), the GI50 is 74 µM (inactive) in [1]; > 100 µM (inactive) in assay [2]; 91 µM (inactive) in assay [9]; > 100 µM (inactive) in assay [6]; 48.1 µM (inactive) in assay [7]; 80 µM (inactive) in [8].

Turning to `Cn1c(C2CC(C)(C)c3c2c2ccccc2n3C)cc2ccccc21` (stereo not drawn), the GI50 in [1] was 115 µM (inactive); in assay [3], > 304 µM (inactive); in assay [9], > 304 µM (inactive); in assay [5], > 304 µM (inactive); in assay [6], > 304 µM (inactive); in [7] it was 138 µM (inactive).

Turning to `O=C1C2=C(c3ccccc31)C(c1ccc(F)cc1)N1C(=O)CCSC1=N2` (stereo not drawn), the GI50 in [1] is > 100 µM (inactive); in assay [3] it was > 100 µM (inactive); in assay [9], > 100 µM (inactive); in assay [5], 45.4 µM (inactive); in [6], > 100 µM (inactive); in assay [7], 71.6 µM (inactive).

Regarding `COc1ccc(/C(Cl)=C(\C=N/O)c2ccc(OC)c(OC)c2)cc1OC`, the GI50 is > 100 µM (inactive) in assay [1]; 75.5 µM (inactive) in [2]; > 100 µM (inactive) in [3]; > 100 µM (inactive) in assay [9]; > 100 µM (inactive) in assay [5]; > 100 µM (inactive) in assay [6]. Besides, the GI50 in [7] is 30.8 µM (inactive); in [8], > 100 µM (inactive).

On to `CC(=O)n1ccc2c(Cl)ncnc21`, for which the GI50 in assay [2], in [3], in assay [9], in assay [4], in [5] and in [6] was > 100 µM (inactive) throughout. Besides, the GI50 in assay [7] is > 100 µM (inactive).

For `CC[P+](C)(Cc1ccccc1)c1ccccc1.O=C(OC(C(=O)[O-])C(OC(=O)c1ccccc1)C(=O)O)c1ccccc1` (stereo not drawn), the GI50 is > 100 µM (inactive) in assay [1]; > 100 µM (inactive) in assay [2]; > 100 µM (inactive) in [3]; > 100 µM (inactive) in [9]; > 100 µM (inactive) in [6]; 5.47 µM (inactive) in assay [8].

Take `CC/C=C1\N=C(c2ccc(Cl)cc2)OC1=O`: the GI50 in [1], in assay [2], in assay [3], in [9], in [5] and in assay [6] was > 100 µM (inactive) throughout. Moreover, the GI50 in [7] is > 100 µM (inactive).

Take `COc1cc2ccnc(C#N)c2cc1OCc1ccccc1`: the GI50 in assay [1] was 53.6 µM (inactive); in assay [2], > 100 µM (inactive); in assay [3], > 100 µM (inactive); in assay [5], > 100 µM (inactive); in assay [6] it was > 100 µM (inactive); in [8], > 100 µM (inactive).

In the case of `NC1=C(Br)C(=O)c2ncccc2C1=O`, the GI50 is 0.998 µM (active) in assay [1]; 0.828 µM (active) in [2]; 0.607 µM (active) in assay [3]; 0.352 µM (active) in assay [9]; 1.79 µM (inactive) in [4]; 0.321 µM (active) in [5]. For the same compound, the GI50 in assay [6] is 1.86 µM (inactive); in assay [7], 0.16 µM (active).

As for `Cn1c2ccccc2n2c3nc4ccccc4nc3c(C#N)c12`, the GI50 in [1] was > 100 µM (inactive); in [3], < 0.01 µM (active); in assay [9], > 100 µM (inactive); in assay [5] it was > 100 µM (inactive); in assay [7] it was > 100 µM (inactive); in assay [8] it was > 100 µM (inactive).

`Nc1ccc(S(=O)(=O)Nc2ccc(Nc3c4ccccc4nc4ccccc34)cc2)cc1`: the GI50 in [1] is 3.61 µM (inactive); in assay [2] it was 3.78 µM (inactive); in [3], 1.06 µM (active); in assay [9], < 0.01 µM (active); in [4] it was 0.284 µM (active); in assay [5] it was 3.91 µM (inactive). For the same compound, the GI50 in assay [6] is 0.215 µM (active); in assay [7] it was < 0.0102 µM (active); in assay [8], 0.43 µM (active).

Regarding `Nc1nc(SCCNC(=O)CCc2ccc(O)cc2)nc2c1ncn2C1OC(CO)C(O)C1O` (stereo not drawn), the GI50 in assay [1], in assay [2], in assay [3], in assay [9], in [6] and in assay [7] was > 203 µM (inactive) in each case. Further, the GI50 in [8] was > 203 µM (inactive).
